ChEMBL document CHEMBL1146491, “Seco[D-Asp3]microcystin-RR and [D-Asp3,D-Glu(OMe)6]microcystin-RR, two new microcystins from a toxic water bloom of the cyanobacterium planktothrixrubescens” (J Nat Prod, 2004)

Assay: Inhibition of recombinant PP1

SMILES | IC30
CNC(=O)CC[C@@H](NC(=O)[C@@H](C)[C@H](/C=C/C(C)=C/[C@H](C)[C@H](Cc1ccccc1)OC)NC(=O)[C@H](CCCNC(=N)N)NC(=O)C[C@@H](NC(=O)[C@H](CCCNC(=N)N)NC(=O)[C@@H](C)NC(=O)C(C)=O)C(=O)O)C(=O)O | 0.8 µM
C=C1C(=O)N[C@H](C)C(=O)N[C@@H](CCCNC(=N)N)C(=O)N[C@@H](C(=O)O)CC(=O)N[C@@H](CCCNC(=N)N)C(=O)N[C@@H](/C=C/C(C)=C/[C@H](C)[C@H](Cc2ccccc2)OC)[C@H](C)C(=O)N[C@@H](C(=O)O)CCC(=O)N1C | 7.8 µM
